Data taken from PMC5729604, “Dual inhibitors of hepatitis C virus and hepatocellular carcinoma: design, synthesis and docking studies” (Future Science OA, 2017).
Converted amounts (≈) assume the structure as drawn. “And” between values parts separate entries of the source, which are not always exact repeats. Equal entries are not always repeated. Where two headings read alike, the source gives them in different places.

Tested on: human HCC cell line HepG2
Assay: cells
Format: cell-based
Settings: for IC50: Homo sapiens, HepG2, 72 h; for in vitro anticancer activity against HepG2, in words: IC50 <100 μg/ml potential, 100-1000 μg/ml moderate; for (LD0) HepG2 / Safe doses (100% viability of HepG2) LD0: human
Method: The safe compounds on RBCs (5a-g, 5i-l, 5p-r, 5v-w, 6b-g) were screened for their potential anticancer activity against human HCC cell line HepG2. HepG2 cells were exposed to the test compounds, then viability of cells was measured using neutral red uptake assay as described by Borenfreund and Puerner. This assay depends on the fact that neutral red dye can be incorporated into the lysosomes of living cells providing a quantitative assay to the cytotoxic effects. The results were interpreted to calculate both the concentration causing 50% cancer cell death (IC50) of each compound and the maximum safe concentration that cause 100% viability (LD0; to be used in the in vitro anti-HCV testing) using GraphPad InStat 3.0 software (Figure 5 & Supplementary Table 2).
HepG2 cells were routinely maintained as adherent cell cultures in RPMI-1640 medium (Lonza Group Ltd, Basel, Switzerland) supplemented with 10% fetal bovine serum (FBS; Lonza, IL, USA) at 37°C in a humidified air incubator containing 5% CO2. Cells were subcultured for 2 weeks before assay. Cell viability was assessed using trypan blue exclusion method.
HepG2 cells were washed twice in RPMI-1640 medium supplemented with 200 μM L-glutamine (Lonza) and […] 4-(2-hydroxyethyl)-1-piperazineethanesulfonic acid (HEPES) buffer (Lonza). The cells were suspended at 3 × 10^4 cells/ml in RPMI culture medium (RPMI supplemented medium and 10% FBS). The appropriate number of cells was chosen to be 3 × 10^3 cells/well (100 μl of the prepared suspension), and the cells were left to adhere on the polystyrene 96-well plates in an incubator at 37°C, 5% CO2 and 95% humidity for 24 h. The cells were washed once using RPMI supplemented medium.
A 2 mg/ml stock solution of each compound was prepared in DMF and filtered using a 0.2 μM syringe filter. The desired concentrations (20, 10, 5, 2.5 and 1.25 μg/ml) were prepared using serial dilution in a 96-well plate. Compound wells were prepared by adding 100 μl of the previously prepared concentrations to a 100 μl of HepG2 cells suspension. Parallel concentrations of the solvent were prepared to be used as controls. 5-Fluorouracil was used as a positive control. Control wells were prepared by adding 100 μl culture media to a 100 μl of HepG2 cells suspension. Blank wells contained 200 μl of culture media only (without cells or compound solution). Each set of samples was pipetted in duplicate. The plate was gently shaken, then incubated at 37°C, 5% CO2 for 72 h.
After incubation, the plate was centrifuged (2000 r.p.m. for 10 min). The media were discarded by inversion over paper towels. A working solution (100 μg/ml) of neutral red stain (Bio Basic Inc, Markham, Canada) was prepared, and 100 μl of this solution was added to each well, then the plate was gently shaken. The plate was incubated at 37°C in humidified 5% CO2 for 3 h, and then centrifuged (2000 r.p.m. for 10 min). Excess dyes were discarded, and the cells were fixed with 100 μl fixing solution (0.5% formalin with 1% calcium chloride [Sigma-Aldrich]) for 1 min. Cells were destained in 100 μl destaining solution (50% ethanol with 1% glacial acetic acid [Sigma-Aldrich]) for 5 min by shaking. The stain intensity was assayed using automated microplate reader spectrophotometer adjusted at 490 nm. Surviving cell fraction was calculated according to the following equation: [drawing 3]
The results were interpreted to calculate both the concentration causing 50% cancer cell death (IC50) of each compound and the maximum safe concentration that cause 100% viability (LD0; to be used in the in vitro anti-HCV testing) using GraphPad InStat 3.0 software.

[1] = 72 h, neutral red, Table 1, read-out: IC50 (HepG2)
[2] = 72 h, neutral red, read-out: IC50 against HepG2 cells
[3] = LD50 on normal cells / IC50 on cancer cells, larger than three = highly selective
[4] = 72 h, neutral red, Supplementary Table 2, read-out: Anticancer (HepG2) IC50

IC50 [1] [mg/L]	IC50 [2] [mg/L]	IC50 [4] [mg/L]	IC50 against HepG2 cells (72 h, neutral red) [mg/L]	Compound	in vitro anticancer activity against HepG2, in words	Selectivity index (LD50 on PBMC / IC50 on HepG2)	Selectivity index [3]	(LD0) HepG2 (72 h) [µg/mL]	Safe doses (100% viability of HepG2) LD0 (72 h) [µg/mL]	IC100, concentration that killed 100% of cancer cells (HepG2, calculated with GraphPad InStat)
11 (≈ 17.1 µM)	< 50			COc1ccc(-c2nn(-c3ccccc3)cc2C=C2SC(=NN=C(C)c3nc4ccccc4[nH]3)N(c3ccc(Cl)cc3)C2=O)cc1 [Compound 5r, 2-[1-(1H-Benzimidazole-2-yl)ethylidenehydrazono]-5-{[3-(4-methoxyphenyl)-1-phenyl-1H-pyrazol-4-yl]methylene}-3-(4-chlorophenyl)thiazolidin-4-one]	potential in vitro anticancer activity	3.99	larger than three	0.18	0.181	
35.7 (≈ 55.1 µM)	< 50		< 100	CC(=NN=C1SC(=Cc2cn(-c3ccccc3)nc2-c2ccc(Cl)cc2)C(=O)N1c1ccc(Cl)cc1)c1nc2ccccc2[nH]1 [Compound 5q, 2-[1-(1H-Benzimidazole-2-yl)ethylidenehydrazono]-5-{[3-(4-chlorophenyl)-1-phenyl-1H-pyrazol-4-yl]methylene}-3-(4-chlorophenyl)thiazolidin-4-one]	potential in vitro anticancer activity		larger than three	23.12	23.12	94.54 µg/mL and < 100 µg/mL

More lines, now with the values behind:

Compound	IC50 [1] [mg/L]	IC50 [2] [mg/L]	IC50 [4] [mg/L]	IC50 against HepG2 cells (72 h, neutral red) [mg/L]	in vitro anticancer activity against HepG2, in words	Selectivity index (LD50 on PBMC / IC50 on HepG2)	Selectivity index [3]	(LD0) HepG2 (72 h) [µg/mL]	Safe doses (100% viability of HepG2) LD0 (72 h) [µg/mL]	IC100, concentration that killed 100% of cancer cells (HepG2, calculated with GraphPad InStat)
CC(=NN=C1SC(=Cc2cn(-c3ccccc3)nc2-c2ccc(Cl)cc2)C(=O)N1c1ccc(Cl)cc1)c1cc2ccccc2o1 [Compound 5e, 2-[1-(Benzofuran-2-yl)ethylidenehydrazono]-5-{[3-(4-chlorophenyl)-1-phenyl-1H-pyrazol-4-yl]methylene}-3-(4-chlorophenyl)thiazolidin-4-one]			318 (≈ 490 µM)					31.12	31.12	
CC(=NN=C1SC(=C2C(=O)Nc3ccccc32)C(=O)N1C1CCCCC1)c1cc2ccccc2o1 [Compound 6d, 2-[1-(Benzofuran-2-yl)ethylidenehydrazono]-5-(2-oxoindolin-3-ylidene)-3-cyclohexylthiazolidin-4-one]	34.3 (≈ 70.7 µM)	< 50			potential in vitro anticancer activity	0.42		7.31	7.31	
CC(=NN=C1SC(=Cc2cn(-c3ccccc3)nc2-c2ccccc2)C(=O)N1c1ccc(Cl)cc1)c1cc2ccccc2o1 [Compound 5d, 2-[1-(Benzofuran-2-yl)ethylidenehydrazono]-5-[(1,3-Diphenyl-1H-pyrazol-4-yl)methylene]-3-(4-chlorophenyl)thiazolidin-4-one]			1140 (≈ 1850 µM)		very weak anticancer activity			163.55	163.55	
CC(=NN=C1SC(=Cc2cn(-c3ccccc3)nc2-c2ccccc2)C(=O)N1c1ccccc1)c1cc2ccccc2o1 [Compound 5a, 2-[1-(Benzofuran-2-yl)ethylidenehydrazono]-5-[(1,3-Diphenyl-1H-pyrazol-4-yl)methylene]-3-phenylthiazolidin-4-one]			173 (≈ 298 µM)					10.15	10.15	
